Results from PubChem BioAssay (NCI).
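GI50 = concentration required for 50% inhibition of growth. The concentration for full growth arrest is given as TGI.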

Legend:
Assay in all cases: NCI anticancer screen, dose series, 384-well format
[1] = system: A498 renal
[2] = system: A549 NSCLC
[3] = system: ACHN renal
[4] = system: BT-549 breast
[5] = system: CAKI-1 renal
[6] = system: COLO 205 colon
[7] = system: DU-145 prostate
[8] = system: EKVX NSCLC
[9] = system: HCC-2998 colon
[10] = system: HCT-116 colon
[11] = system: HCT-15 colon
[12] = system: HL-60(TB) leukemia
[13] = system: HOP-62 NSCLC
[14] = system: HOP-92 NSCLC
[15] = system: HS 578T breast
[16] = system: HT29 colon
[17] = system: IGROV1 ovarian
[18] = system: KM12 colon
[19] = system: LOX IMVI melanoma
[20] = system: M14 melanoma
[21] = system: MALME-3M melanoma
[22] = system: MCF7 breast
[23] = system: MDA-MB-231 breast
[24] = system: MDA-MB-435 melanoma
[25] = system: MDA-MB-468 breast
[26] = system: MOLT-4 leukemia
[27] = system: NCI-H226 lung
[28] = system: NCI-H23 lung
[29] = system: NCI-H322M lung
[30] = system: NCI-H460 NSCLC
[31] = system: NCI-H522 lung
[32] = system: NCI/ADR-RES ovarian
[33] = system: OVCAR-3 ovarian
[34] = system: OVCAR-4 ovarian
[35] = system: OVCAR-5 ovarian
[36] = system: OVCAR-8 ovarian
[37] = system: PC-3 prostate
[38] = system: RPMI-8226 leukemia
[39] = system: RXF 393 renal
[40] = system: SF-268 CNS
[41] = system: SF-295 CNS
[42] = system: SF-539 CNS
[43] = system: SK-MEL-28 melanoma
[44] = system: SK-MEL-5 melanoma
[45] = system: SK-OV-3 ovarian
[46] = system: SN12C renal
[47] = system: SNB-19 CNS
[48] = system: SNB-75 CNS
[49] = system: SR leukemia
[50] = system: T-47D breast
[51] = system: TK-10 renal
[52] = system: U251 glioblastoma
[53] = system: UACC-257 melanoma
[54] = system: UACC-62 melanoma
[55] = system: 786-0 renal
[56] = system: CCRF-CEM leukemia
[57] = system: K-562 leukemia
[58] = system: SK-MEL-2 melanoma
[59] = system: SW-620 colon
[60] = system: UO-31 renal

`Cc1ccc(F)c(NC(=O)Nc2ccc(-c3cccc4[nH]nc(N)c34)cc2)c1` gave a GI50 [1] of 2.03 µM, a TGI [1] of 4.58 µM and a GI50 [2] of 3.14 µM. It also gave a TGI [2] of 9.44 µM, a GI50 [3] of 2.13 µM and a TGI [3] of 5.05 µM. For the same compound, the GI50 [4] was 1.99 µM, the TGI [4] was 3.79 µM and the GI50 [5] was 2.84 µM. It also gave a TGI [5] of 7.73 µM, a GI50 [6] of 1.93 µM and a TGI [6] of 4.29 µM. For the same compound, the GI50 [7] was 1.73 µM, the TGI [7] was 3.55 µM and the GI50 [8] was 2.13 µM. The TGI [8] was 4.53 µM, the GI50 [9] was 1.27 µM and the TGI [9] was 2.65 µM. For the same compound, the GI50 [10] was 1.99 µM, the TGI [10] was 4.6 µM and the GI50 [11] was 1.82 µM. The TGI [11] was 4.3 µM, the GI50 [12] was 1.27 µM and the TGI [12] was 2.54 µM. It also gave a GI50 [13] of 1.94 µM, a TGI [13] of 5.5 µM and a GI50 [14] of 3.96 µM. It also gave a TGI [14] of 12.6 µM, a GI50 [15] of 2.19 µM and a TGI [15] of 5.31 µM. For the same compound, the GI50 [16] was 1.77 µM, the TGI [16] was 4.58 µM and the GI50 [17] was 1.78 µM. The TGI [17] was 3.79 µM, the GI50 [18] was 0.432 µM and the TGI [18] was 3.87 µM. The GI50 [19] was 1.85 µM, the TGI [19] was 3.32 µM and the GI50 [20] was 1.96 µM. It also gave a TGI [20] of 4.86 µM, a GI50 [21] of 1.93 µM and a TGI [21] of 4.24 µM. It also gave a GI50 [22] of 1.08 µM, a TGI [22] of 4.28 µM and a GI50 [23] of 3.83 µM. For the same compound, the TGI [23] was 15.2 µM, the GI50 [24] was 2.16 µM and the TGI [24] was 4.25 µM. The GI50 [25] was 1.8 µM, the TGI [25] was 3.69 µM and the GI50 [26] was 1.91 µM. The TGI [26] was 3.35 µM, the GI50 [27] was 2.44 µM and the TGI [27] was 9.13 µM. The GI50 [28] was 1.71 µM, the TGI [28] was 3.4 µM and the GI50 [29] was 2.15 µM. For the same compound, the TGI [29] was 5.5 µM, the GI50 [30] was 1.61 µM and the TGI [30] was 3.02 µM. The GI50 [31] was 2.05 µM, the TGI [31] was 3.54 µM and the GI50 [32] was 2.43 µM. For the same compound, the TGI [32] was 9.01 µM, the GI50 [33] was 1.75 µM and the TGI [33] was 3.25 µM. The GI50 [34] was 1.6 µM, the TGI [34] was 3.98 µM and the GI50 [35] was 1.82 µM. The TGI [35] was 3.89 µM, the GI50 [36] was 2.01 µM and the TGI [36] was 9.04 µM. The GI50 [37] was 2.31 µM, the TGI [37] was 4.82 µM and the GI50 [38] was 1.76 µM. For the same compound, the TGI [38] was 3.16 µM, the GI50 [39] was 1.56 µM and the TGI [39] was 3.59 µM. It also gave a GI50 [40] of 2.3 µM, a TGI [40] of 7.63 µM and a GI50 [41] of 3.17 µM. For the same compound, the TGI [41] was 10.5 µM, the GI50 [42] was 1.44 µM and the TGI [42] was 3.49 µM. The GI50 [43] was 4.44 µM, the TGI [43] was 15.6 µM and the GI50 [44] was 1.34 µM. For the same compound, the TGI [44] was 2.67 µM, the GI50 [45] was 2.42 µM and the TGI [45] was 11.6 µM. The GI50 [46] was 1.26 µM, the TGI [46] was 2.89 µM and the GI50 [47] was 3.26 µM. The TGI [47] was 8.97 µM, the GI50 [48] was 2.67 µM and the TGI [48] was 9.2 µM. For the same compound, the GI50 [49] was 1.49 µM, the TGI [49] was 2.82 µM and the GI50 [50] was 2.85 µM. For the same compound, the TGI [50] was 14.2 µM, the GI50 [51] was 2.07 µM and the TGI [51] was 5.48 µM. It also gave a GI50 [52] of 2.27 µM, a TGI [52] of 4.83 µM and a GI50 [53] of 1.83 µM. For the same compound, the TGI [53] was 3.95 µM, the GI50 [54] was 2.31 µM and the TGI [54] was 5.7 µM.

With `NC(=O)c1cccc2c(N[C@H](CN3CCC3)c3ccc(Cl)c(C(F)(F)F)c3)ncnc12` the GI50 [55] was 0.482 µM, the TGI [55] was 1.94 µM and the GI50 [1] was 0.138 µM. For the same compound, the TGI [1] was 1.52 µM, the GI50 [2] was 1.51 µM and the TGI [2] was 6.39 µM. For the same compound, the GI50 [3] was 1.95 µM, the TGI [3] was 12.2 µM and the GI50 [4] was 0.316 µM. For the same compound, the TGI [4] was 1.52 µM, the GI50 [5] was 1.29 µM and the TGI [5] was 3.65 µM. The GI50 [56] was 0.41 µM, the TGI [56] was 1.75 µM and the GI50 [6] was 0.951 µM. The TGI [6] was 2.16 µM, the GI50 [7] was 2.63 µM and the TGI [7] was 13.8 µM. It also gave a GI50 [8] of 1.15 µM, a TGI [8] of 5.01 µM and a GI50 [9] of 1.04 µM. For the same compound, the TGI [9] was 2.23 µM, the GI50 [10] was 1.8 µM and the TGI [10] was 5.39 µM. The GI50 [11] was 1.19 µM, the TGI [11] was 8.43 µM and the GI50 [12] was 1.56 µM. The TGI [12] was 2.91 µM, the GI50 [13] was 3.32 µM and the TGI [13] was 12 µM. For the same compound, the GI50 [14] was 1.32 µM, the TGI [14] was 3.35 µM and the GI50 [15] was 0.75 µM. It also gave a TGI [15] of 2.35 µM, a GI50 [16] of 1.4 µM and a TGI [16] of 2.98 µM. The GI50 [17] was 0.247 µM, the TGI [17] was 1.88 µM and the GI50 [57] was 1.64 µM. For the same compound, the TGI [57] was 3.2 µM, the GI50 [18] was 0.92 µM and the TGI [18] was 6.88 µM. The GI50 [19] was 2.18 µM, the TGI [19] was 7 µM and the GI50 [20] was 1.21 µM. The TGI [20] was 2.48 µM, the GI50 [21] was 0.457 µM and the TGI [21] was 1.71 µM. For the same compound, the GI50 [22] was 0.362 µM, the TGI [22] was 1.86 µM and the GI50 [23] was 2.72 µM. It also gave a TGI [23] of 13.7 µM, a GI50 [24] of 1.32 µM and a TGI [24] of 5.51 µM. For the same compound, the GI50 [25] was 0.256 µM, the TGI [25] was 1.25 µM and the GI50 [26] was 0.0882 µM. For the same compound, the TGI [26] was 0.718 µM, the GI50 [27] was 2.35 µM and the TGI [27] was 8.74 µM. The GI50 [28] was 1.73 µM, the TGI [28] was 6.24 µM and the GI50 [29] was 3.1 µM. It also gave a TGI [29] of 14.4 µM, a GI50 [30] of 0.366 µM and a TGI [30] of 2.4 µM. For the same compound, the GI50 [31] was 1.19 µM, the TGI [31] was 5.7 µM and the GI50 [32] was 2.79 µM. The TGI [32] was 10.3 µM, the GI50 [33] was 2.72 µM and the TGI [33] was 11.2 µM. It also gave a GI50 [34] of 3.02 µM, a TGI [34] of 12 µM and a GI50 [35] of 2.79 µM. For the same compound, the TGI [35] was 11.2 µM, the GI50 [36] was 2.56 µM and the TGI [36] was 11.2 µM. The GI50 [37] was 0.345 µM, the TGI [37] was 3.85 µM and the GI50 [38] was 1.2 µM. For the same compound, the TGI [38] was 2.45 µM, the GI50 [39] was 0.231 µM and the TGI [39] was 1.34 µM. For the same compound, the GI50 [40] was 1.48 µM, the TGI [40] was 4.2 µM and the GI50 [41] was 1.02 µM. It also gave a TGI [41] of 3.22 µM, a GI50 [42] of 0.195 µM and a TGI [42] of 1.63 µM. The GI50 [58] was 1.31 µM, the TGI [58] was 2.66 µM and the GI50 [43] was 1.26 µM. The TGI [43] was 2.69 µM, the GI50 [44] was 1.38 µM and the TGI [44] was 2.69 µM. It also gave a GI50 [45] of 0.43 µM, a TGI [45] of 2.91 µM and a GI50 [46] of 2.1 µM. The TGI [46] was 12.6 µM, the GI50 [47] was 1.73 µM and the TGI [47] was 5.2 µM. It also gave a GI50 [48] of 0.258 µM, a TGI [48] of 1.57 µM and a GI50 [59] of 1.86 µM. The TGI [59] was 7.73 µM, the GI50 [50] was 0.199 µM and the TGI [50] was 1.39 µM. It also gave a GI50 [51] of 1.25 µM, a TGI [51] of 3.18 µM and a GI50 [52] of 1.89 µM. For the same compound, the TGI [52] was 10.4 µM, the GI50 [53] was 1.02 µM and the TGI [53] was 2.19 µM. It also gave a GI50 [54] of 0.98 µM, a TGI [54] of 2.21 µM and a GI50 [60] of 1.58 µM. The TGI [60] was 9.03 µM.
